Measurements: paper PMC10491607, “Structural insight into the substrate recognition and transport mechanism of amino acid transporter complex ACE2-B^0AT1 and ACE2-SIT1” (Cell Discovery, 2023)
Values belong to the molecule of their own block, whether it stands above or below them.

Experiments:
[1] = target: T1, ACE2-B^0AT1 complex (Homo sapiens, UniProt Q695T7); experiment: cryo-EM structure of the complex, […] A; assay type: binding; conditions: central substrate site between TM1 and TM6
T1 construct: gene SLC6A19; purified complex for cryo-EM; with Angiotensin-converting enzyme 2
T1 sequence (Q695T7 whole entry): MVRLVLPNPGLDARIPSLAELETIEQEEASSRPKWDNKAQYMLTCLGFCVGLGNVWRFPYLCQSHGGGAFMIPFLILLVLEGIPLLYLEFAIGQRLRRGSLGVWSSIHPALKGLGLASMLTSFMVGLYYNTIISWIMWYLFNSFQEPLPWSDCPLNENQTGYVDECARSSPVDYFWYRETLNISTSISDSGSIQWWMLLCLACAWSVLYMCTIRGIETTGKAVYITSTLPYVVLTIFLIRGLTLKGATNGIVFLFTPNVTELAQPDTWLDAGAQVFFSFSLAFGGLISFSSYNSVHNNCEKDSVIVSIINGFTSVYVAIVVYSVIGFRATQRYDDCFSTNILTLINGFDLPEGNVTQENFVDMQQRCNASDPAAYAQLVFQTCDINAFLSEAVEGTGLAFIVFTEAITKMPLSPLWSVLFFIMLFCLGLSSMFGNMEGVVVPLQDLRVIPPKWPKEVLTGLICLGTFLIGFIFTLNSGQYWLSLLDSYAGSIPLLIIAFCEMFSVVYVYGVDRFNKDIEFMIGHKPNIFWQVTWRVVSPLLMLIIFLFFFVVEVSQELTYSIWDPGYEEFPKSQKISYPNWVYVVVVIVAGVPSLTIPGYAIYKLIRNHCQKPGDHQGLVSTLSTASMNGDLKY
T1 sequence (Q9BYF1 18-805 partner): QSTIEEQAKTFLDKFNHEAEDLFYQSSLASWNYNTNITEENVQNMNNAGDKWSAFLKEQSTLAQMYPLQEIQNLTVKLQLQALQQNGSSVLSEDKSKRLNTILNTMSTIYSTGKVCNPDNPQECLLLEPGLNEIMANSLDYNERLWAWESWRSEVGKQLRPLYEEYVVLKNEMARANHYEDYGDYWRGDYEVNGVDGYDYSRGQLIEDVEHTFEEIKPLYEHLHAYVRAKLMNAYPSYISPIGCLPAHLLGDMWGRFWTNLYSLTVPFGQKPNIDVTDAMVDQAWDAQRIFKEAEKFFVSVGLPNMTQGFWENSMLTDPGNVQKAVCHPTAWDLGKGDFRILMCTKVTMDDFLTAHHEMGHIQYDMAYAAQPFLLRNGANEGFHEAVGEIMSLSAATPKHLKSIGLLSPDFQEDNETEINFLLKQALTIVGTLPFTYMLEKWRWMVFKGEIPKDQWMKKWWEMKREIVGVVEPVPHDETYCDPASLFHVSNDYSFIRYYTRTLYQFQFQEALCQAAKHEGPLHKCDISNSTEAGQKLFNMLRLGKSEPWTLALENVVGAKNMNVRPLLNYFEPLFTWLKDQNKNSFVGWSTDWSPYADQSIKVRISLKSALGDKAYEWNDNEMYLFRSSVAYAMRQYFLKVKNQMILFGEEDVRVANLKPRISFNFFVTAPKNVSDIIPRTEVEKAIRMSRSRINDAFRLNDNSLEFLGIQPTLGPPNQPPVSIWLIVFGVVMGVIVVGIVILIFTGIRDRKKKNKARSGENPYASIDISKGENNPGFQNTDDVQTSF

[2] = target: T1, ACE2-B^0AT1 complex; experiment: cryo-EM structure of the complex, […] A; assay type: binding; conditions: central substrate site between TM1 and TM6; remark: listed apart in the source
[3] = target: T2, ACE2-SIT1 complex (Homo sapiens, UniProt Q9NP91, Q247A); experiment: Pro-induced transport current in HEK293T cells co-expressing SIT1 and ACE2; assay type: cell-based
T2 construct: gene SLC6A20; co-expressed in HEK293T cells for currents; purified complex for cryo-EM (two protomers, each ACE2 plus SIT1); with Angiotensin-converting enzyme 2
T2 sequence (Q9NP91 whole entry Q247A): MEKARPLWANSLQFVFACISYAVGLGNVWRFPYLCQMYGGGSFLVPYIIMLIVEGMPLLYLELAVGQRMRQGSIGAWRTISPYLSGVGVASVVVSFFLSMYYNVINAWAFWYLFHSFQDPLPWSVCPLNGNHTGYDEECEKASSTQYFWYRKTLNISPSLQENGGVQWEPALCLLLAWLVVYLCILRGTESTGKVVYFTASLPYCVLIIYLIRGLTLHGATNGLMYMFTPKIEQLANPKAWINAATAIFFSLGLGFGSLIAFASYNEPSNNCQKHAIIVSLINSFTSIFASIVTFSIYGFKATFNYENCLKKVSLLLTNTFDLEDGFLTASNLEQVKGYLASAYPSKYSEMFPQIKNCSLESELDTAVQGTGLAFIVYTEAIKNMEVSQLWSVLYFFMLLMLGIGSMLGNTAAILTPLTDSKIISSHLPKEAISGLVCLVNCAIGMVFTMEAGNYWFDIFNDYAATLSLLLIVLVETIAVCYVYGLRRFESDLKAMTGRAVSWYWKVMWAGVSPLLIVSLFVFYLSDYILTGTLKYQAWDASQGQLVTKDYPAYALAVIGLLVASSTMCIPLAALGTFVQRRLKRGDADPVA
T2 sequence (Q9BYF1 18-805 partner): as the sequence (Q9BYF1 18-805 partner) above

[4] = target: T3, ACE2-SIT1 complex (Homo sapiens, UniProt Q9NP91); experiment: as above; assay type: cell-based
T3 construct: gene SLC6A20; co-expressed in HEK293T cells for currents; purified complex for cryo-EM (two protomers, each ACE2 plus SIT1); with Angiotensin-converting enzyme 2
T3 sequence (Q9NP91 whole entry): as the sequence (Q9NP91 whole entry Q247A) above, with A247Q counted along it
T3 sequence (Q9BYF1 18-805 partner): as the sequence (Q9BYF1 18-805 partner) above

SMILES: NC(=O)CC[C@H](N)C(=O)O [Gln]
cryo-EM structure of the complex, 3.2 A [1]: ACE2-B^0AT1 complex bound to its native substrates Gln and Met are determined

SMILES: CSCC[C@H](N)C(=O)O [Met]
cryo-EM structure of the complex, 3.1 A [2]: ACE2-B^0AT1 complex bound to its native substrates Gln and Met are determined

EC50 [3]: ~70 µM
EC50 [4]: ~2510 µM
SMILES: O=C(O)[C@@H]1CCCN1 [Pro]
